From patent publication US12116356B2, “N-heterocyclic five-membered ring-containing capsid protein assembly inhibitor, pharmaceutical composition thereof, and use thereof” (CHIA TAI TIANQING PHARMACEUTICAL GROUP CO., LTD., priority 2018, dated 2024)

Assays:
[1] = In vivo pharmacokinetics (PK) study in rats; set-up: species or system SD rats; details: rat
[2] = In vivo pharmacokinetic (PK) study in Beagle dog; set-up: species or system Beagle dogs
Description: Beagle dogs, weighing 9 to 11 kg, were randomly divided into two groups of 3 dogs each, compound 12 was given by intragastric administration to each group at a dose of 5 mg/kg.
The test animals (Beagle dogs) were fasted for 12 hours before the administration, and fed 4 hours after the administration. They were free to access water before and after the experiment.
After the intragastric administration, about 0.5 mL of whole blood was collected from the veins of the left forelimb in an EDTA-K2 anticoagulated vacuum blood collection tube at 0 min, 15 min, 30 min, 1 h, 2 h, 4 h, 6 h, 8 h, 10 h, 24 h, 48 h, and 72 h. Within 30 minutes after collection, the plasma was separated by centrifugation at 4° C. and 4000 rpm for 10 minutes. Immediately after collecting all plasma, it was stored at −20° C. for testing.
50 μL of the plasma sample to be tested and standard curve sample were pipetted, and then thereto was added 500 μL of an acetonitrile solution containing an internal standard (diazepam 20 mg/mL). The resulting mixture was oscillated and mixed uniformly for 5 min, and then centrifugated at 12000 rpm for 10 min, 75 μL of the supernatant was pipetted, and 75 μL of ultrapure water was added for dilution and mixed evenly. 1 μL of the resulting solution was pipetted for LC/MS/MS determination.

[3] = In vivo pharmacokinetics (PK) study in rats; set-up: species or system SD rats
Description: SD rats, weighing 180˜220 g, were randomly divided into groups of three […] each after 3 to 5 days' acclimatization, and a series of the compounds were administered intragastrically to each group at a dose of 20 mg/kg.
The test animals (SD rats) were fasted for 12 hours before administration and fed 4 hours after the administration. They were free to access water before and after the experiment.
After the administration, about 0.2 mL of blood from the orbits was collected at 0 min, 15 min, 30 min, 1 h, 2 h, 4 h, 6 h, 8 h, 10 h, 24 h, 30 h, and 48 h. Within 30 minutes after anticoagulation with EDTA-K2, the plasma was separated by centrifugation at 4° C. and 4000 rpm for 10 minutes. Immediately after collecting all plasma, it was stored at −20° C. for testing.
50 μL of the plasma sample to be tested and standard curve sample were pipetted, and then thereto was added 500 μL of an acetonitrile solution containing an internal standard (diazepam 20 mg/mL). The resulting mixture was oscillated and mixed uniformly for 5 min, and then centrifugated at 12000 rpm for 10 min. 75 μL supernatant was pipetted, and 75 μL ultrapure water was added thereto for dilution, and mixed evenly. 1 μL of the resulting solution was pipetted for LC/MS/MS determination.

[4] = In vivo pharmacokinetics (PK) study in mice; details: ICR mice, po 30 mg/kg
Description: ICR mice, weighing 18-20 g, were randomly divided into groups of three mice each after 3 to 5 days' acclimatization, and a series of the compounds were administered intragastrically to each group at a dose of 30 mg/kg. The test animals (ICR mice) were fasted for 12 hours before the administration and fed 4 hours after the administration. They were free to access water before and after the experiment. After the intragastric administration, about 0.1 mL of blood was collected from the orbits. Within 30 minutes after anticoagulation with EDTA-K2, the plasma was separated by centrifugation at 4° C. and 4000 rpm for 10 minutes. Immediately after collecting all plasma, it was stored at −20° C. for testing. 20 μL of the plasma sample to be tested and standard curve sample were pipetted, and then thereto was added 200 μL of an acetonitrile solution containing an internal standard (diazepam 20 mg/mL). The resulting mixture was oscillated and mixed uniformly for 5 min, and then centrifugated at 12000 rpm for 10 min. 75 μL supernatant was pipetted, and 75 μL ultrapure water was added thereto for dilution, and mixed evenly. 1 μL of the resulting solution was pipetted for LC/MS/MS determination.

[5] = plasma, Beagle dogs, PO 5 mg/kg
[6] = rat, plasma, SD rats, PO 20 mg/kg

Row | Structure (SMILES) | half-life ([1]; SD, in vivo, iv, 5 mg/kg) | AUC(0-inf) ([1]; plasma, SD rats, IV 5 mg/kg) | Cmax ([1]; plasma, SD rats, IV 5 mg/kg) | clearance ([1]; plasma, SD rats, IV 5 mg/kg) | AUC(0-t) ([1]; plasma, SD rats, IV 5 mg/kg, read-out: AUC(0-48 h)) | Vd ([1]; plasma, SD rats, IV 5 mg/kg, read-out: Vz) | half-life ([2]; Beagle, in vivo, po, 5 mg/kg) | AUC(0-inf) [2, 5] | Cmax [2, 5] | Tmax [2, 5] | AUC(0-t) ([2]; plasma, Beagle dogs, PO 5 mg/kg, read-out: AUC(0-72 h)) | MRT last ([2]; plasma, Beagle dogs, PO 5 mg/kg, read-out: MRT(0-t)) | F ([3]; SD rats, PO 20 mg/kg vs IV 5 mg/kg) | half-life ([3]; SD, rat, in vivo, po, 20 mg/kg) | AUC(0-inf) [3, 6] | Cmax [3, 6] | AUC(0-t) ([3]; rat, plasma, SD rats, PO 20 mg/kg, read-out: AUC(0-48 h)) | Liver AUC(0-8 h) ([4]; 0.25 h, 3 h, 8 h) | Plasma AUC(0-8 h) ([4]; blood at 0.25 h, 3 h, 8 h) | Kp ([4]; mouse, liver/blood, AUC(0-8 h), read-out: Liver to blood ratio)
1 | Cc1c(C(=O)Nc2ccc(F)c(C#N)c2)c(C)n(C)c1C(=O)C(=O)N[C@@H](C)C(F)(F)F [Example 12] | 3.41 h | 27100 ng·h/mL | 6270 ng/mL | 3.1 mL/min/kg | 27100 ng·h/mL | 0.914 L/kg | 105 h | 162000 ng·h/mL | 1280 ng/mL | 1.67 h | 61900 ng·h/mL | 32.9 h | 57% | 3.65 h | 62300 ng·h/mL | 5020 ng/mL | 62000 ng·h/mL | – | – | –
2 | Cc1c(C(=O)Nc2ccc(F)c(C#N)c2)c(C)n(C)c1C(=O)C(=O)NC1(C(F)(F)F)COC1 [Example 25, N-(3-cyano-4-fluorophenyl)-1,2,4-trimethyl-5-(2-oxo-2-((3-(trifluoromethyl)oxetan-3-yl)amino)acetyl)-1H-pyrrole-3-carboxamide] | – | – | – | – | – | – | – | – | – | – | – | – | – | – | – | – | – | 315435 ng/g | 37732 ng/mL | 8.36
